Consider one molecule from ChEMBL document CHEMBL1201862, “PubChem BioAssay data set” (2004).

Each structure is given as a SMILES string.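 Values below derive from 48-hour exposures of cells grown in 96-well plates, with endpoints linearly interpolated between the two concentrations bracketing the appropriate inhibition level. At the GI50, growth is halved.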 Activity calls are given as the source filed them. Rule as the data show it: active = GI50 up to about 1.1 µM and inactive = higher.

What all share (assay): NCI anticancer screen, dose series, 48 h
The test system of assay [1] is SK-OV-3.
Assay [2] has as its system A498.
The subject of assay [3] is DMS-273.
Assay [4] concerns MOLT-4.
For assay [5], the system named is HCT-15.
In assay [6] the test system is RPMI-8226.
In assay [7] the test system is HOP-92.
In assay [8] the test system is SR.
Assay [9] has as its system UACC-62.
Assay [10] deals with KM12.
The subject of assay [11] is BT-549.
Assay [12] has as its system SW-620.
Assay [13] concerns MDA-MB-435.
For assay [14], the system named is SN12C.
For assay [15], the system named is COLO 205.
In assay [16] the test system is SF-268.
In assay [17] the test system is SK-MEL-5.
The subject of assay [18] is NCI-H226.
The subject of assay [19] is Malme-3M.
Assay [20] has as its system TK-10.

Turning to `CC1=C2C(=CO[C@H](C)[C@H]2C)C(O)=C(C(=O)O)C1=O` [CITRININ], the GI50 is 71.8 µM (inactive) in assay [1]; 0.782 µM (active) in assay [2]; 44 µM (inactive) in assay [3]; 13.1 µM (inactive) in [4]; 16.9 µM in assay [5]; 15.8 µM (inactive) in assay [6]. Moreover, the GI50 was 25.1 µM (inactive) in [7]; 15.6 µM (inactive) in assay [8]; 20.3 µM (inactive) in assay [9]; 26.9 µM (inactive) in [10]; 13.3 µM (inactive) in assay [11]; 20.6 µM (inactive) in assay [12]. For the same molecule, the GI50 is 27 µM (inactive) in assay [13]; 21.7 µM (inactive) in assay [14]; 33.9 µM (inactive) in assay [15]; 7 µM (inactive) in assay [16]; 12.8 µM (inactive) in [17]; 23.3 µM (inactive) in [18]. Moreover, the GI50 in [19] is 50.1 µM (inactive); in [20] it was 24.5 µM (inactive).
